Data: ChEMBL document CHEMBL1157539, “Thousands of chemical starting points for antimalarial lead identification” (Nature, 2010)

Test system: Plasmodium falciparum
Experiment: GSK_TCMDC: Inhibition of Plasmodium falciparum 3D7 in whole erythrocytes, using parasite LDH activity as an index of growth.
Type: functional, organism-based
Conditions: Plasmodium falciparum, 3D7

Row | SMILES | XC50 [nM]
1 | Clc1ccc(C=NN=c2cc[nH]c3ccccc23)cc1 | 723
2 | O=c1cc(NCCCNCc2ccc(Cl)c(Cl)c2)[nH]c2cc(Cl)ccc12 | 925
3 | COc1ccc2c(-c3ccccc3)noc2c1 | 241
4 | O=C(/C=C/c1ccc(Cl)c(Cl)c1)NCCCCCCN1CCN(C(=O)Nc2cc(Cl)nc(Cl)c2)CC1 | 784
5 | COc1ccc(CN(C)C(=O)CCNS(=O)(=O)c2ccc3c(c2)OCCCO3)cc1F | 656
6 | O=C(N[C@H]1CCN(Cc2ccc(OC3CCN(Cc4ccccc4)CC3)c(Br)c2)C1)c1ccc(Cl)c(Cl)c1 | 783
7 | COc1ccc(-c2ccc(NC(=O)c3cccc(Cl)c3)cc2)cc1CN(C)CCO | 710
8 | CN(C)/C(=N/C(=N)NCc1ccc(Cl)c(Cl)c1)NCCCCCCN/C(=N\C(=N)NCc1ccc(Cl)c(Cl)c1)N(C)C | 304
9 | COc1ccccc1C1CCN(CCCCNC(=O)c2ccc(/C=C/c3cc(Cl)cc(Cl)c3)cc2)CC1 | 718
10 | O=C(Nc1ccc(Oc2ccccc2)cc1)N(Cc1ccc(-c2ccc(CN3CCNCC3)cc2)cc1)C1CCN(Cc2ccccc2)CC1 | 886
11 | c1cc2[nH]c(CCc3nc4cc(C5=NC6CCCCC6N5)ccc4[nH]3)nc2cc1C1=NC2CCCCC2N1 (centres undefined) | 230
12 | Cc1cc2c(cc1Cl)N(C(=O)Nc1cc(F)cc(-c3cncnc3)c1)CC2 | 377
13 | COc1ccc2c(c1)CC(NCc1ccc(-c3ccc4nc[nH]c4c3)cc1)C2 (centres undefined) | 880
14 | Cc1cccc(Cn2nc(-c3ccccc3)c(N3CCCCC3)cc2=O)c1 | 464
15 | COc1ccc2nccc([C@@H](O)CN3CCC(c4cc(-c5ccc(Cl)cc5)[nH]n4)CC3)c2n1 | 737
16 | CC(C)(C)OC(=O)NCc1ccc(Nc2nnc(-c3cccc(C(=O)NCCC(c4ccccc4)c4ccccc4)c3)o2)cc1 | 581
17 | CCc1sc(-c2ccc(C(C)(C)C)cc2)nc1C(=O)NCCCN1CCCC1=O | 988
18 | O=C(CCCCCNC(=O)c1ccc(O)c(-c2ccc(Cl)c(Cl)c2)c1)NCc1cccc2ccccc12 | 762
19 | COc1c(C2=CCN(CCCCNC(=O)c3ccc(-c4ccc(C#N)cc4)cc3)CC2)c(C)cc2c1C(C)(C)CCC2(C)C | 947
20 | CC(C)C(C(=O)Nc1ccc(S(=O)(=O)N(C)C)cc1)c1ccc(Cl)cc1 (centres undefined) | 937
21 | C=CCc1cc(Br)ccc1OCCCON1C(N)=NC(N)=NC1(C)C | 3.2
22 | COc1cccc(CN2CCN(C(c3ccccc3)c3ccccc3)CC2)c1O | 781
23 | FC(F)(F)c1cccc(Nc2nc3nonc3nc2NC2C3CC4CC(C3)CC2C4)c1 (centres undefined) | 661
24 | CSc1ccc2ccccc2c1CCNCCCCNCCc1c(SC)ccc2ccccc12 | 408

Row | SMILES | XC50 [nM]
25 | COc1ccccc1C1CC(c2ccccc2)=NN1C(=O)c1ccco1 (centres undefined) | 397
26 | CCC1CN2CCc3c([nH]c4ccccc34)[C@@H]2C[C@@H]1CC1NCCc2cc(OC)c(OC)cc21 (some centres undefined) | 865
27 | Cc1csc(-c2ncc(OC[C@@H](N)Cc3ccccc3)cc2-c2ccc3[nH]nc(C)c3c2)c1 | 836
28 | O=C(CSc1nc(-c2ccccc2Cl)ns1)Nc1cccc(Cl)c1 | 787
29 | O=C(CCC1CCCCC1)NCCNc1cccc2ccccc12 | 831
30 | Oc1ccc2ccccc2c1C=NNc1nc(=Nc2ccccc2)nc(N2CCOCC2)[nH]1 | 885
31 | Cn1cccc1C(=O)C(=O)Nc1ccc(-c2ccc(-c3nc4cc(F)ccc4[nH]3)cc2)cc1 | 838
32 | O=C(c1ccc(O)c(-c2cc(Cl)cc(Cl)c2)c1)N(CCO)CCO | 908
33 | CC(C)c1ccc(NC(=O)c2cccc(CN3CCCN(CC4CCCCC4)CC3)c2)cc1 | 710
34 | CCCCNC[C@@H](O)[C@H](Cc1ccccc1)NC(=O)c1cc(NCC)cc(N2CCCCS2(=O)=O)c1 | 398
35 | Cc1cc(N2CCN(CC3CCN(C)CC3)CC2)nc(Nc2ccc(Br)cc2)n1 | 442
36 | Cc1[nH]c(C)c(-c2ccc(OCCCCSc3ccncc3)cc2)c(=O)c1Br | 246
37 | CSCCC(C(=O)O)N1C(=O)c2ccccc2C1=O (centres undefined) | 1030
38 | Cc1cc(=NN=Cc2ccccc2Cl)c2ccc(F)cc2[nH]1 | 257
39 | O=C(Nc1ccc(-c2nc3ccccc3[nH]2)cc1)C1CCN(Cc2ccc(F)cc2)CC1 | 838
40 | CN(c1cc(NC(=O)c2cccs2)ccn1)C1CCN(Cc2cccc(F)c2)CC1 | 676
41 | CC[C@H]1CN2CC[C@@H]1C[C@H]2[C@H](O)c1cc(-c2ccc(F)cc2)nc2ccc(O)cc12 | 140
42 | COC(=O)c1ccc(CC(C)NCC(O)c2ccc(F)c(Cl)c2)cc1 (centres undefined) | 863
43 | O=C(Nc1ccc(C(=O)OCC(c2ccccc2)c2ccccc2)cc1)N[C@@H](Cc1ccc(O)cc1)C(=O)NC1CCN(Cc2ccc(O)cc2)C1 (some centres undefined) | 782
44 | c1ccc(CNCc2cccc(-c3ccc(-c4nc5ccccc5[nH]4)cc3)c2)cc1 | 822
45 | Cc1c(Cl)cccc1N=C(S)NN=Cc1ccccn1 | 603
46 | CCCc1cc(NCC)nc(Nc2ccc(F)cc2)n1 | 1030
47 | CS(=O)(=O)CCNCc1cccc(-c2ccc3c(Nc4cc(O)c(Cl)cc4F)ccnc3c2)c1 | 254
48 | CCc1cn2c3c(cc(C(=O)N[C@@H](Cc4ccccc4)[C@H](O)CNCc4ccccc4C)cc13)N(C)S(=O)(=O)CC2 | 271

Row | SMILES | XC50 [nM]
49 | Cc1ccccc1-c1cc(=O)c2cc(NC(=O)c3cccs3)ccc2o1 | 218
50 | CCN(CC)CCN(CCN(CC)CC)c1ccc2c(c1)Sc1c(Cl)ccc(Cl)c1S2 | 876
51 | NC(=O)COc1c(C2CCN(CCCCNC(=O)c3ccc(-c4ccc(Cl)cc4)c(O)c3)CC2)ccc2c1CCCC2 | 706
52 | COc1ccc(N2CCN(CCCCNC(=O)c3ccc(NC(=O)c4cccc(Cl)c4)cc3)CC2)c(OC)c1 | 911
53 | CC(CN1CCN(C)CC1)C(=O)Nc1ccc(-c2ccc(-c3nc4ccccc4[nH]3)s2)cc1 (centres undefined) | 638
54 | CC(C)Sc1nncc(-c2cnnc(SC(C)C)n2)n1 | 141
55 | Cc1ccc(CN2CCCN(Cc3ccc(C(=O)Nc4ccc(Cl)cc4)cc3)CC2)s1 | 1110
56 | CN1CCC(N(Cc2ccc(N3CCN(Cc4c[nH]c5ccc(Cl)cc45)CC3)nc2)C2CC2)CC1 | 999
57 | NC1=NC(c2ccccc2)(c2ccccc2)C(=O)N1CCCCc1ccccc1 | 760
58 | CC(C)C1=C[C@H]2C[C@]3(C4OCCO4)[C@@H]4CC[C@@H](C)[C@H]4C[C@@]2(COCc2cccc(C#N)c2)[C@]13C(=O)OC(c1ccccc1)c1ccccc1 | 1790
59 | COc1cc2nc(N3CCC(CNC(=O)/C=C/c4ccccc4F)CC3)nc(N)c2cc1OC | 581
60 | ON=C1c2cc(OCCN3CCCCC3)c(Cl)cc2-c2cc(Cl)c(OCCN3CCCCC3)cc21 | 703
61 | NC1CCN(c2nc(NCCCc3ccc(O)cc3)nc(NCc3ccccc3-c3ccccc3)n2)CC1 | 678
62 | O=C(Nc1ccc(S(=O)(=O)NCCCN2CCOCC2)cc1)c1cc(-c2ccccc2)[nH]n1 | 769
63 | CC(=O)N(C)c1ccc(C(=O)Nc2cccc(-c3cccc(-c4nc5cccc(C)c5[nH]4)c3)c2)cc1 | 620
64 | O=C(Nc1ccc(OC2CCN(Cc3ccc(F)cc3)CC2)c(Cl)c1)c1cccs1 | 318
65 | CCc1ccc(-n2c(NC(=O)c3ccccc3)nc3ccc(S(=O)(=O)NC(C)C(C)C)cc32)cc1 (centres undefined) | 926
66 | COc1ccc(-c2c(-c3ccc(OCc4ccccc4)cc3O)n[nH]c2C(F)(F)F)cc1 | 1170
67 | COc1cc(-c2nc(-c3ccncc3)c(-c3ccc4c(c3)CCC4=NO)[nH]2)ccc1OCCN1CCCCC1 | 789
68 | O=C(Nc1cccc(C(F)(F)F)c1)c1cccc(S(=O)(=O)NCC2CCCN(CC3CCCCC3)C2)c1 (centres undefined) | 880
69 | O=C(CSc1nc2ccc([N+](=O)[O-])cc2s1)Nc1ccccc1-c1ccccc1 | 1170
70 | COCCNCc1cccc(-c2ccccc2CN(C(=O)Nc2ccccc2)C2CCN(Cc3ccccc3)CC2)c1 | 914
71 | FC(F)(F)c1cccc(Nc2nc(-n3ccnc3)nc(-n3ccnc3)n2)c1 | 724
72 | CCCCC(CC)CN1C(=O)C(c2ccccc2)(c2ccccc2)N=C1N (centres undefined) | 189

Row | SMILES | XC50 [nM]
73 | Cc1ccc(C)c2sc(N(CCCn3ccnc3)C(=O)C=Cc3cccs3)nc12 | 1060
74 | COc1ccc(CN2CCCN(Cc3cccc(NC(=O)c4ccc(-c5ccccc5)cc4)c3)CC2)cc1 | 943
75 | CN1CCC(N2CCN(Cc3cccc(-c4ccc(-c5nc6cc(C(F)(F)F)ccc6[nH]5)cc4)c3)CC2)CC1 | 140
76 | CCc1cn2c3c(cc(C(=O)N[C@@H](Cc4cccc(Cl)c4)[C@H](O)CNC4CCOCC4)cc13)N(C)S(=O)(=O)CC2 | 44.2
77 | CCN(CC)/C(=N/C(=N)Nc1ccc(Cl)c(Cl)c1)NCCCCCCN/C(=N\C(=N)Nc1ccc(Cl)c(Cl)c1)N(CC)CC | 761
78 | CC(C)c1ccc(N2CCN(CCCCNC(=O)c3ccc(NC(=O)c4cc(Cl)cc(Cl)c4)cc3)CC2)cc1 | 156
79 | CC(Cc1ccc(NC(=O)c2ccc(CNCCCCc3ccccc3)cc2)cc1)NCCc1cccc(Cl)c1 (centres undefined) | 334
80 | COc1cc(C(=O)N2CCN(C(C)C)CC2)ccc1CN(C)CCCCN1CCN(c2cccc(Cl)c2Cl)CC1 | 704
81 | CO/C(=C\C=C\c1cc2cc(Cl)c(Cl)cc2[nH]1)C(=O)Nc1ccc(NCCN(C)C)nc1 | 765
82 | CS(=O)(=O)c1cccc(-c2cnc(N)c3cc(-c4ccc(F)cc4)ccc23)c1 | 903
83 | O=C(/C=C/c1ccc(-c2nc3ccc(Cl)cc3[nH]2)cc1)NC1CCN(Cc2ccccc2)CC1 | 610
84 | O=C(c1ccc(Cl)cc1Cl)N1CCCC(C(F)(F)F)C1 (centres undefined) | 952
85 | COc1cccc(C(=O)NCc2nnc(S)n2-c2ccc(Cl)c(Cl)c2)c1 | 173
86 | O=C(/C=C/c1ccc(Cl)c(Cl)c1)NCCCCCN1CCCC(CNC(=O)/C=C/c2ccccc2)C1 (centres undefined) | 791
87 | Cc1cccc2nc(-c3ccc(-c4cccc(CN5CCCC5CN)c4)s3)[nH]c12 (centres undefined) | 867
88 | CCOc1cc(Cl)c(C(C)NC(=O)c2ccccc2)cc1OCC (centres undefined) | 875
89 | NC(=O)C1CCN(Cc2ccc(-c3ccc(-c4nc5cc(F)ccc5[nH]4)cc3)cc2)CC1 | 809
90 | NC(=O)c1ccc(-n2cnc3cc(F)ccc32)cc1OCc1ccccc1C(F)(F)F.NC(=O)c1ccc(-n2cnc3ccc(F)cc32)cc1OCc1ccccc1C(F)(F)F | 363
91 | Fc1ccc(Nc2nnc(CNC3CCN(Cc4ccc(Cl)c(Cl)c4)CC3)[nH]2)cc1 | 1380
92 | Cc1ccc(NC(=O)N2CCN(CCCCCNC(=O)/C=C/c3ccc(Cl)c(Cl)c3)CC2)cc1C | 1100
93 | Cc1ccc(OCCCCON2C(=N)N=C(N)NC2(C)C)cc1C | 3.2
94 | Cc1[nH]c2cc(Cl)ccc2c1C1=CCN(CCN2CCOc3c(Br)cccc3C2=O)CC1 | 873
